Results reported in patent publication US8846656B2, “Tetrahydropyrido-pyridine and tetrahydropyrido-pyrimidine compounds and use thereof as C5a receptor modulators” (Novartis AG, priority 2011, dated 2014).
pIC50: −log10 of the molar value.

How the values were obtained:
CD11b = assay: Human whole blood CD11b up-regulation assay; format: cell-based; details: Homo sapiens, 2 nM human C5a, CD15+ granulocytes, read-out: hCD11b IC50
Outline: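 Flow cytometric read-out: CD11b median fluorescence intensity of CD15+ granulocytes, 10,000 events. Stimulus was 2 nM human C5a for 15 min at room temperature, following 10 min compound exposure in 1% DMSO in fresh sodium-heparin whole blood; staining done on ice and erythrocytes lysed.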

human C5aR = human C5aR (Homo sapiens (Human), UniProt P21730); assay: FLIPR assay: inhibition of C5a-mediated calcium mobilization; format: cell-based; details: stable cell line over expressing human C5aR & Gα15, human C5a at EC50 (0.1-0.25 nM)
Sequence of human C5aR (P21730 whole entry): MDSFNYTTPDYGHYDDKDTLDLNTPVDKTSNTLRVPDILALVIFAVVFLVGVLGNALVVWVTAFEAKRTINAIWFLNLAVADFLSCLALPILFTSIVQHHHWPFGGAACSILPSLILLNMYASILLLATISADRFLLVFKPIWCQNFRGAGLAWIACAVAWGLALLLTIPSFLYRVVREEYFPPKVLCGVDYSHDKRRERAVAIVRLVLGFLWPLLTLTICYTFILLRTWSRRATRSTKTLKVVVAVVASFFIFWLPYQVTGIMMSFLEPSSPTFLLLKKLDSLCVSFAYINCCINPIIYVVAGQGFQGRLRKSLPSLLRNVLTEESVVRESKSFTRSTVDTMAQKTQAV
Outline: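 Compounds were added for 30 minutes at room temperature (1% DMSO) ahead of C5a stimulation. Before this, cells were dye-loaded for 1 h at 37° C: calcium 5 with 2.5 mM probenecid in HBSS, 20 mM HEPES, 0.1% BSA. Cells co-express human C5aR and Gα15; read-out is FLIPR Tetra calcium flux.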

Row | pIC50 (CD11b) | pIC50 (human C5aR) | SMILES
1 | 7.16 | 7.96 | CCc1cccc(CC)c1-c1cc(C)c2c(n1)CCN(c1cc(C3CC3)ccc1C)C2 [Example 40-M, 6-(5-cyclopropyl-2-methylphenyl)-2-(2,6-diethylphenyl)-4-methyl-5,6,7,8-tetrahydro-1,6-naphthyridine]
2 | 6.71 | 8.40 | Cc1ccc2[nH]nc(C)c2c1-c1nc2c(c(N3C[C@@H](O)[C@@H]3C)n1)CN(c1c(Cl)c(C3CC3)nn1C)CC2 (racemic) [Example 69-H, (trans)-1-(6-(4-chloro-3-cyclopropyl-1-methyl-1H-pyrazol-5-yl)-2-(3,5-dimethyl-1H-indazol-4-yl)-5,6,7,8-tetrahydropyrido[4,3-d]pyrimidin-4-yl)-2-methylazetidin-3-ol]
3 | 7.15 | 7.89 | CO[C@H]1CCN(c2nc(-c3cccc4[nH]cc(C)c34)nc3c2CN(c2cc(C(C)C)ccc2C)CC3)[C@H](C)C1 [Example 17-P, 6-(5-isopropyl-2-methylphenyl)-4-((2R,4S)-4-methoxy-2-methylpiperidin-1-yl)-2-(3-methyl-1H-indol-4-yl)-5,6,7,8-tetrahydropyrido[4,3-d]pyrimidine]
4 | 7.66 | 8.40 | COc1ccc(C)c(N2CCc3nc(-c4c(C(C)C)ccc5[nH]ncc45)nc(N4CC[C@H](OC)C(C)(C)C4)c3C2)c1 [Example 19-AE, (S)-2-(5-isopropyl-1H-indazol-4-yl)-6-(5-methoxy-2-methylphenyl)-4-(4-methoxy-3,3-dimethylpiperidin-1-yl)-5,6,7,8-tetrahydropyrido[4,3-d]pyrimidine]
5 | 6.94 | 8.40 | CO[C@H]1CCN(c2nc(-c3cccc4[nH]cc(C)c34)nc3c2CN(c2cc(C(C)C)ccc2C)CC3)CC1(C)C [Example 17-G, (S)-6-(5-Isopropyl-2-methylphenyl)-4-(4-methoxy-3,3-dimethylpiperidin-1-yl)-2-(3-methyl-1H-indol-4-yl)-5,6,7,8-tetrahydropyrido[4,3-d]pyrimidine]
6 | 5.70 | 7.70 | Cc1cc(-c2c(C(C)C)ccc3[nH]ncc23)nc2c1CN(c1cc(C3CC3)nn1C)CC2 [Example 46-A, 6-(3-Cyclopropyl-1-methyl-1H-pyrazol-5-yl)-2-(5-isopropyl-1H-indazol-4-yl)-4-methyl-5,6,7,8-tetrahydro-1,6-naphthyridine]
7 | 7.44 | 8.52 | CO[C@H]1CCN(c2nc(-c3c(C)ccc4[nH]nc(C)c34)nc3c2CN(c2c(Cl)c(C4CC4)nn2C)CC3)CC1(C)C [Example 55-L, (S)-6-(4-Chloro-3-cyclopropyl-1-methyl-1H-pyrazol-5-yl)-2-(3,5-dimethyl-1H-indazol-4-yl)-4-(4-methoxy-3,3-dimethylpiperidin-1-yl)-5,6,7,8-tetrahydropyrido[4,3-d]pyrimidine]
8 | 7.92 | 8.22 | CO[C@@H]1CCN(c2nc(-c3c(C)ccc4[nH]nc(C)c34)nc3c2CN(c2c(Cl)c(C(F)(F)F)nn2C)CC3)CC1(C)C [Example 55-N, (R)-6-(4-chloro-1-methyl-3-(trifluoromethyl)-1H-pyrazol-5-yl)-2-(3,5-dimethyl-1H-indazol-4-yl)-4-(4-methoxy-3,3-dimethylpiperidin-1-yl)-5,6,7,8-tetrahydropyrido[4,3-d]pyrimidine]
9 | 7.74 | 8.05 | COc1nc(-c2c(C)ccc3[nH]nc(C)c23)nc2c1CN(c1cc(C(C)C)ccc1C)CC2 [Example 31-I, 2-(3,5-dimethyl-1H-indazol-4-yl)-6-(5-isopropyl-2-methylphenyl)-4-methoxy-5,6,7,8-tetrahydropyrido[4,3-d]pyrimidine]
10 | 6.17 | 8.15 | Cc1ccc(C(F)(F)F)cc1N1CCc2nc(-c3cccc4[nH]cc(C)c34)nc(N3CCN(CC(N)=O)[C@H](C)C3)c2C1 [Example 24-G, (R)-2-(2-methyl-4-(2-(3-methyl-1H-indol-4-yl)-6-(2-methyl-5-(trifluoromethyl)phenyl)-5,6,7,8-tetrahydropyrido[4,3-d]pyrimidin-4-yl)piperazin-1-yl)acetamide]
11 | 6.52 | 7.66 | CCc1cccc(CC)c1-c1cc(C)c2c(n1)CCN(c1cc(C(C)C)ccc1C)C2 [Example 41-J, 2-(2,6-diethylphenyl)-6-(5-isopropyl-2-methylphenyl)-4-methyl-5,6,7,8-tetrahydro-1,6-naphthyridine]
12 | 7.74 | 8.10 | CO[C@@H]1CCN(c2nc(-c3c(C)cccc3C)nc3c2CN(c2cc(C4CC4)nn2C)CC3)[C@H](C)C1 [Example 23-D, 6-(3-cyclopropyl-1-methyl-1H-pyrazol-5-yl)-2-(2,6-dimethylphenyl)-4-((2R,4R)-4-methoxy-2-methylpiperidin-1-yl)-5,6,7,8-tetrahydropyrido[4,3-d]pyrimidine]
13 | 8.15 | 8.70 | CO[C@H]1CCN(c2nc(-c3c(C)ccc4[nH]nc(C)c34)nc3c2CN(c2cc(C(C)C)ccc2C)CC3)CC1(C)C [Example 19-AI, (S)-2-(3,5-dimethyl-1H-indazol-4-yl)-6-(5-isopropyl-2-methylphenyl)-4-(4-methoxy-3,3-dimethylpiperidin-1-yl)-5,6,7,8-tetrahydropyrido[4,3-d]pyrimidine]
14 | 8.10 | 8.70 | COc1ccc(C)c(N2CCc3nc(-c4c(C)cccc4C)nc(N4CC[C@@H](OC)C[C@H]4C)c3C2)c1 [Example 21-N, 2-(2,6-dimethylphenyl)-6-(5-methoxy-2-methylphenyl)-4-((2R,4R)-4-methoxy-2-methylpiperidin-1-yl)-5,6,7,8-tetrahydropyrido[4,3-d]pyrimidine]
15 | 7.40 | 6.79 | CO[C@@H]1CCN(c2nc(-c3cccc4[nH]cc(C)c34)nc3c2CN(c2cc(Cl)ccc2C)CC3)CC1(C)C [Example 17-BK, (R)-6-(5-chloro-2-methylphenyl)-4-(4-methoxy-3,3-dimethylpiperidin-1-yl)-2-(3-methyl-1H-indol-4-yl)-5,6,7,8-tetrahydropyrido[4,3-d]pyrimidine]
16 | 6.74 | 8.30 | CC(=O)N1CCN(c2nc(-c3cccc4[nH]cc(C)c34)nc3c2CN(c2cc(C4CC4)ccc2C)CC3)[C@H](C)C1 [Example 25-C, (R)-1-(4-(6-(5-cyclopropyl-2-methylphenyl)-2-(3-methyl-1H-indol-4-yl)-5,6,7,8-tetrahydropyrido[4,3-d]pyrimidin-4-yl)-3-methylpiperazin-1-yl)ethanone]
17 | 6.23 | 7.57 | [2H]C1([2H])c2c(C)cc(-c3c(C)ccc4[nH]ncc34)nc2CCN1c1cc(OC)ccc1C [Example 45, 6-(5-Methoxy-2-methylphenyl)-4-methyl-2-(5-methyl-1H-indazol-4-yl)-5,6,7,8-tetrahydro(5,5-^2H2)-1,6-naphthyridine]
18 | 7.96 | 7.19 | CO[C@H]1CCN(c2nc(-c3c(C)ccc4[nH]nc(C)c34)nc3c2CN(c2cc(C(F)(F)F)nn2C)CC3)CC1(C)C [Example 23-K, (S)-2-(3,5-dimethyl-1H-indazol-4-yl)-4-(4-methoxy-3,3-dimethylpiperidin-1-yl)-6-(1-methyl-3-(trifluoromethyl)-1H-pyrazol-5-yl)-5,6,7,8-tetrahydropyrido[4,3-d]pyrimidine]
19 | 5.82 | 7.04 | Cc1c[nH]c2cccc(-c3nc4c(c(N5CCN(CC(N)=O)[C@H](C)C5)n3)CN(c3ccccc3C(F)(F)F)CC4)c12 [Example 24-D, (R)-2-(2-methyl-4-(2-(3-methyl-1H-indol-4-yl)-6-(2-(trifluoromethyl)phenyl)-5,6,7,8 tetrahydropyrido[4,3-d]pyrimidin-4-yl)piperazin-1-yl)acetamide]
20 | 7.35 | 8.05 | CO[C@H]1CCN(c2nc(-c3cccc4[nH]cc(C)c34)nc3c2CN(c2cc(C(C)C)ccc2C)CC3)C[C@@H]1C [Example 17-AY, 6-(5-isopropyl-2-methylphenyl)-4-((3S,4S)-4-methoxy-3-methylpiperidin-1-yl)-2-(3-methyl-1H-indol-4-yl)-5,6,7,8-tetrahydropyrido[4,3-d]pyrimidine]
21 | 7.77 | 8.40 | CO[C@@H]1CCN(c2nc(-c3c(C)cccc3Cl)nc3c2CN(c2cc(C(C)C)ccc2C)CC3)C[C@H]1C [Example 19-AH, 2-(2-chloro-6-methylphenyl)-6-(5-isopropyl-2-methylphenyl)-4-((3R,4R)-4-methoxy-3-methylpiperidin-1-yl)-5,6,7,8-tetrahydropyrido[4,3-d]pyrimidine]
22 | 6.95 | 7.17 | Cc1ccc2[nH]nc(C)c2c1-c1nc2c(c(N3CC(N(C)C)C3)n1)CN(c1c(Cl)c(C3CC3)nn1C)CC2 [Example 69-J, 1-(6-(4-chloro-3-cyclopropyl-1-methyl-1H-pyrazol-5-yl)-2-(3,5-dimethyl-1H-indazol-4-yl)-5,6,7,8-tetrahydropyrido[4,3-d]pyrimidin-4-yl)-N,N-dimethylazetidin-3-amine]
23 | 6.75 | 9.00 | Cc1ccc(C(C)C)cc1N1CCc2nc(-c3cccc4[nH]cc(C)c34)nc(N3CCN(CC(N)=O)C[C@H]3C)c2C1 [Example 52-C, (R)-2-(4-(6-(5-Isopropyl-2-methylphenyl)-2-(3-methyl-1H-indol-4-yl)-5,6,7,8-tetrahydropyrido[4,3-d]pyrimidin-4-yl)-3-methylpiperazin-1-yl)acetamide]

Row | SMILES | pIC50 (CD11b) | pIC50 (human C5aR)
24 | CO[C@H]1C[C@H]2CC[C@@H](C1)N2c1nc(-c2cccc3[nH]cc(C)c23)nc2c1CN(c1cc(C(C)C)ccc1C)CC2 [Example 17-AS, 6-(5-isopropyl-2-methylphenyl)-4-((3-endo)-3-methoxy-8-azabicyclo[3.2.1]octan-8-yl)-2-(3-methyl-1H-indol-4-yl)-5,6,7,8-tetrahydropyrido[4,3-d]pyrimidine] | 7.17 | 7.34
